Key:
Format in all cases: in vivo
[1] = system: Myzus persicae (Green Peach Aphid); assay: Myzus persicae (Green Peach Aphid): Feeding/Contact Activity; conditions: foliar, 144 h, application rate of 200 ppm, aphid population of mixed ages on sprayed sunflower leaf discs, 6 days after infestation
Protocol: Example B6: Myzus persicae (Green Peach Aphid): Feeding/Contact Activity
Sunflower leaf discs were placed onto agar in a 24-well microtiter plate and sprayed with aqueous test solutions prepared from 10'000 ppm DMSO stock solutions. After drying, the leaf discs were infested with an aphid population of mixed ages. The samples were assessed for mortality 6 days after infestation.

[2] = system: Euschistus heros (Neotropical Brown Stink Bug); assay: Euschistus heros (Neotropical Brown Stink Bug), sprayed soybean leaves; conditions: 120 h, application rate of 200 ppm, N2 nymphs on sprayed soybean leaves, 5 days after infestation, read-out: effect in at least one of the two categories (mortality or growth inhibition)
Protocol: Example B3: Euschistus heros (Neotropical Brown Stink Bug)
Soybean leaves on agar in 24-well microtiter plates were sprayed with aqueous test solutions prepared from 10'000 ppm DMSO stock solutions. After drying the leaves were infested with N2 nymphs. The samples were assessed for mortality and growth inhibition in comparison to untreated samples 5 days after infestation.

[3] = system: Diabrotica Balteata (Corn Root Worm); assay: Diabrotica balteata (Corn Root Worm), sprayed maize sprouts; conditions: 96 h, application rate of 200 ppm, L2 larvae on sprayed maize sprouts, 4 days after infestation, read-out: effect in at least one of the two categories (mortality or growth inhibition)
Protocol: Example B2: Diabrotica Balteata (Corn Root Worm)
Maize sprouts placed onto an agar layer in 24-well microtiter plates were treated with aqueous test solutions prepared from 10'000 ppm DMSO stock solutions by spraying. After drying, the plates were infested with L2 larvae (6 to 10 per well). The samples were assessed for mortality and growth inhibition in comparison to untreated samples 4 days after infestation.

[4] = system: Bemisia tabaci (Cotton White Fly); assay: Bemisia tabaci (Cotton White Fly): Feeding/Contact Activity; conditions: foliar, 144 h, application rate of 200 ppm, adult white flies on sprayed cotton leaf discs, 6 days after incubation
Protocol: Example B1: Bemisia tabaci (Cotton White Fly): Feeding/Contact Activity
Cotton leaf discs were placed on agar in 24-well microtiter plates and sprayed with aqueous test solutions prepared from 10'000 ppm DMSO stock solutions. After drying the leaf discs were infested with adult white flies. The samples were checked for mortality 6 days after incubation.

[5] = system: Myzus persicae (Green Peach Aphid); assay: Myzus persicae (Green Peach Aphid): Systemic Activity; conditions: 144 h, test rate of 24 ppm, roots of infested pea seedlings placed into test solutions, 6 days
Protocol: Example B7: Myzus persicae (Green Peach Aphid): Systemic Activity
Roots of pea seedlings infested with an aphid population of mixed ages were placed directly into aqueous test solutions prepared from 10'000 DMSO stock solutions. The samples were assessed for mortality 6 days after placing seedlings into test solutions.

[6] = system: Spodoptera littoralis (Egyptian Cotton Leaf Worm); assay: Spodoptera littoralis (Egyptian Cotton Leaf Worm), sprayed cotton leaf discs; conditions: foliar, 72 h, application rate of 200 ppm, L1 larvae on sprayed cotton leaf discs, 3 days after infestation, read-out: control (mortality, anti-feeding effect or growth inhibition)
Protocol: Example B8: Spodoptera littoralis (Egyptian Cotton Leaf Worm)
Cotton leaf discs were placed onto agar in 24-well microtiter plates and sprayed with aqueous test solutions prepared from 10'000 ppm DMSO stock solutions. After drying the leaf discs were infested with five L1 larvae. The samples were assessed for mortality, anti-feeding effect, and growth inhibition in comparison to untreated samples 3 days after infestation. Control of Spodoptera littoralis by a test sample is given when at least one of the categories mortality, anti-feedant effect, and growth inhibition is higher than the untreated sample.

[7] = system: Plutella xylostella (Diamond Back Moth); assay: Plutella xylostella (Diamond Back Moth), treated artificial diet; conditions: 192 h, application rate of 200 ppm, eggs on treated artificial diet, 8 days after infestation, read-out: effect in at least one of the two categories (mortality or growth inhibition)
Protocol: Example B5: Plutella xylostella (Diamond Back Moth)
24-well microtiter plates with artificial diet were treated with aqueous test solutions prepared from 10'000 ppm DMSO stock solutions by pipetting. After drying, Plutella eggs were pipetted through a plastic stencil onto a gel blotting paper and the plate was closed with it. The samples were assessed for mortality and growth inhibition in comparison to untreated samples 8 days after infestation.

[8] = system: Nilaparvata lugens (Brown Plant Hopper); assay: Nilaparvata lugens (Brown Plant Hopper): Larvicide, Systemic into Water; conditions: 168 h, test rate of 12.5 ppm, rice plants in nutritive solution, N3 nymphs, 7 days after infestation
Protocol: Example B12: Nilaparvata lugens (Brown Plant Hopper): Larvicide, Systemic into Water
Rice plants cultivated in a nutritive solution were treated with the diluted test solutions into nourishing cultivation system. 1 day after application plants were infested with ˜20 N3 nymphs. 7 days after infestation samples were assessed for mortality and growth regulation.

CCS(=O)(=O)c1cccnc1N1Cc2ccc(C(F)(F)F)cc2C1=O [Compound P21, 2-(3-ethylsulfonyl-2-pyridyl)-6-(trifluoromethyl)isoindolin-1-one]
≥ 80%: mortality at 200 ppm [1] | percent effect (mortality or growth inhibition) at 200 ppm [2] | percent effect (mortality or growth inhibition) at 200 ppm [3] | mortality at 200 ppm [4] | mortality at 24 ppm [5] | percent control (mortality, anti-feedant effect or growth inhibition) at 200 ppm [6] | percent effect (mortality or growth inhibition) at 200 ppm [7]

CCS(=O)(=O)c1ccc(C2CC2)nc1N1Cc2cnc(C(F)(F)F)cc2C1=O [Compound P15, 2-(6-cyclopropyl-3-ethylsulfonyl-2-pyridyl)-6-(trifluoromethyl)-3H-pyrrolo[3,4-c]pyriclin-1-one]
≥ 80%: mortality at 200 ppm [1] | percent effect (mortality or growth inhibition) at 200 ppm [2] | percent effect (mortality or growth inhibition) at 200 ppm [3] | mortality at 24 ppm [5] | percent control (mortality, anti-feedant effect or growth inhibition) at 200 ppm [6] | percent effect (mortality or growth inhibition) at 200 ppm [7]

CCS(=O)(=O)c1ccc(-c2ncccn2)nc1N1Cc2cnc(C(F)(F)F)cc2C1=O [Compound P16, 2-(3-ethylsulfonyl-6-pyrimidin-2-yl-2-pyridyl)-6-(trifluoromethyl)-3H-pyrrolo[3,4-c]pyriclin-1-one]
≥ 80%: mortality at 200 ppm [1] | percent effect (mortality or growth inhibition) at 200 ppm [2] | percent effect (mortality or growth inhibition) at 200 ppm [3] | mortality at 24 ppm [5] | percent control (mortality, anti-feedant effect or growth inhibition) at 200 ppm [6] | percent effect (mortality or growth inhibition) at 200 ppm [7]

CCS(=O)(=O)c1cc(C2CC2)cnc1N1Cc2cnc(C(F)(F)F)cc2C1=O [Compound P14, 2-(5-cyclopropyl-3-ethylsulfonyl-2-pyridyl)-6-(trifluoromethyl)-3H-pyrrolo[3,4-c]pyriclin-1-one]
≥ 80%: mortality at 200 ppm [1] | percent effect (mortality or growth inhibition) at 200 ppm [2] | percent effect (mortality or growth inhibition) at 200 ppm [3] | mortality at 24 ppm [5] | percent control (mortality, anti-feedant effect or growth inhibition) at 200 ppm [6] | percent effect (mortality or growth inhibition) at 200 ppm [7]

CCS(=O)(=O)c1cccnc1N1Cc2ccc(OC(F)(F)F)cc2C1=O [Compound P24, 2-(3-ethylsulfonyl-2-pyridyl)-6-(trifluoromethoxy)isoindolin-1-one]
≥ 80%: mortality at 200 ppm [1] | percent effect (mortality or growth inhibition) at 200 ppm [3] | percent control (mortality, anti-feedant effect or growth inhibition) at 200 ppm [6] | percent effect (mortality or growth inhibition) at 200 ppm [7]

CCS(=O)(=O)c1cccnc1N1Cc2cnc(C(F)(F)F)cc2C1=O [Compound P1, 2-(3-ethylsulfonyl-2-pyridyl)-6-(trifluoromethyl)-3H-pyrrolo[3,4-c]pyridin-1-one]
≥ 80%: mortality at 200 ppm [1] | percent effect (mortality or growth inhibition) at 200 ppm [2] | mortality at 12.5 ppm [8] | percent effect (mortality or growth inhibition) at 200 ppm [3] | mortality at 24 ppm [5] | percent control (mortality, anti-feedant effect or growth inhibition) at 200 ppm [6] | percent effect (mortality or growth inhibition) at 200 ppm [7]

CCC(=O)N(C)c1ccc(S(=O)(=O)CC)c(N2Cc3cnc(C(F)(F)F)cc3C2=O)n1 [Compound P19, N-[5-ethylsulfonyl-6-[1-oxo-6-(trifluoromethyl)-3H-pyrrolo[3,4-c]pyridin-2-yl]-2-pyridyl]-N-methyl-propanamide]
≥ 80%: mortality at 200 ppm [1] | percent effect (mortality or growth inhibition) at 200 ppm [2] | percent effect (mortality or growth inhibition) at 200 ppm [3] | mortality at 24 ppm [5] | percent control (mortality, anti-feedant effect or growth inhibition) at 200 ppm [6] | percent effect (mortality or growth inhibition) at 200 ppm [7]

CCS(=O)(=O)c1cc(C2(C#N)CC2)cnc1N1Cc2ccc(OC(F)(F)F)cc2C1=O [Compound P25, 1-[5-ethylsulfonyl-6-[1-oxo-6-(trifluoromethoxy)isoindolin-2-yl]-3-pyridyl]cyclopropanecarbonitrile]
≥ 80%: mortality at 200 ppm [1] | percent effect (mortality or growth inhibition) at 200 ppm [2] | percent effect (mortality or growth inhibition) at 200 ppm [3] | mortality at 200 ppm [4] | percent control (mortality, anti-feedant effect or growth inhibition) at 200 ppm [6] | percent effect (mortality or growth inhibition) at 200 ppm [7]

CCS(=O)(=O)c1cccnc1N1Cc2ncc(C(F)(F)F)cc2C1=O [Compound P22, 6-(3-ethylsulfonyl-2-pyridyl)-3-(trifluoromethyl)-7H-pyrrolo[3,4-b]pyridin-5-one]
≥ 80%: mortality at 200 ppm [1] | percent effect (mortality or growth inhibition) at 200 ppm [3] | mortality at 24 ppm [5] | percent control (mortality, anti-feedant effect or growth inhibition) at 200 ppm [6] | percent effect (mortality or growth inhibition) at 200 ppm [7]

CCS(=O)(=O)c1cc(Br)cnc1N1Cc2cnc(C(F)(F)F)cc2C1=O [Compound P7, 2-(5-bromo-3-ethylsulfonyl-2-pyridyl)-6-(trifluoromethyl)-3H-pyrrolo[3,4-c]pyridin-1-one]
≥ 80%: mortality at 200 ppm [1] | percent effect (mortality or growth inhibition) at 200 ppm [3] | mortality at 200 ppm [4] | percent control (mortality, anti-feedant effect or growth inhibition) at 200 ppm [6] | percent effect (mortality or growth inhibition) at 200 ppm [7]

CCS(=O)(=O)c1ccc(N2CCOC2=O)nc1N1Cc2cnc(C(F)(F)F)cc2C1=O [Compound P17, 3-[5-ethylsulfonyl-6-[1-oxo-6-(trifluoromethyl)-3H-pyrrolo[3,4-c]pyridin-2-yl]-2-pyridyl]oxazolidin-2-one]
≥ 80%: mortality at 200 ppm [1] | percent effect (mortality or growth inhibition) at 200 ppm [3] | mortality at 24 ppm [5] | percent control (mortality, anti-feedant effect or growth inhibition) at 200 ppm [6] | percent effect (mortality or growth inhibition) at 200 ppm [7]

CCS(=O)(=O)c1ccc(N(C)C(C)=O)nc1N1Cc2cnc(C(F)(F)F)cc2C1=O [Compound P20, N-[5-ethylsulfonyl-6-[1-oxo-6-(trifluoromethyl)-3H-pyrrolo[3,4-c]pyridin-2-yl]-2-pyridyl]-N-methyl-acetamide]
≥ 80%: mortality at 200 ppm [1] | percent effect (mortality or growth inhibition) at 200 ppm [2] | percent effect (mortality or growth inhibition) at 200 ppm [3] | mortality at 24 ppm [5] | percent control (mortality, anti-feedant effect or growth inhibition) at 200 ppm [6] | percent effect (mortality or growth inhibition) at 200 ppm [7]

CCS(=O)(=O)c1cc(C(C)(C)C#N)cnc1N1Cc2ncc(C(F)(F)F)cc2C1=O [Compound P27, 2-[5-ethylsulfonyl-6-[5-oxo-3-(trifluoromethyl)-7H-pyrrolo[3,4-b]pyridin-6-yl]-3-pyridyl]-2-methyl-propanenitrile]
≥ 80%: percent effect (mortality or growth inhibition) at 200 ppm [3] | mortality at 200 ppm [4] | mortality at 24 ppm [5] | percent control (mortality, anti-feedant effect or growth inhibition) at 200 ppm [6] | percent effect (mortality or growth inhibition) at 200 ppm [7]

CCS(=O)(=O)c1cccnc1N1Cc2ccc(S(=O)(=O)C(F)(F)F)cc2C1=O [Compound P23, 2-(3-ethylsulfonyl-2-pyridyl)-6-(trifluoromethylsulfonyl)isoindolin-1-one]
≥ 80%: mortality at 200 ppm [1] | percent effect (mortality or growth inhibition) at 200 ppm [2] | percent effect (mortality or growth inhibition) at 200 ppm [3] | mortality at 200 ppm [4] | mortality at 24 ppm [5] | percent control (mortality, anti-feedant effect or growth inhibition) at 200 ppm [6] | percent effect (mortality or growth inhibition) at 200 ppm [7]

CCS(=O)(=O)c1cc(C2(C#N)CC2)cnc1N1Cc2ccc(C(F)(F)F)cc2C1=O [Compound P26]
≥ 80%: mortality at 200 ppm [1] | percent effect (mortality or growth inhibition) at 200 ppm [2] | percent effect (mortality or growth inhibition) at 200 ppm [3] | mortality at 200 ppm [4] | percent control (mortality, anti-feedant effect or growth inhibition) at 200 ppm [6] | percent effect (mortality or growth inhibition) at 200 ppm [7]

— US12538924B2, “Pesticidally active heterocyclic derivatives with sulfur containing substituents” (SYNGENTA CROP PROTECTION AG, priority 2019, dated 2026)
